Test results from paper PMC7999448, “Antibacterial and COX-2 Inhibitory Tetrahydrobisbenzylisoquinoline Alkaloids from the Philippine Medicinal Plant Phaeanthus ophthalmicus” (Plants, 2021).

How the values were obtained:
ovine COX-1 = biological target: T1, ovine COX-1 (Ovis aries, UniProt P05979); experiment: colorimetric peroxidase assay, TMPD oxidation at […] nm (Cayman kit); format: biochemical
T1 construct: gene PTGS1
T1 sequence (P05979 25-600): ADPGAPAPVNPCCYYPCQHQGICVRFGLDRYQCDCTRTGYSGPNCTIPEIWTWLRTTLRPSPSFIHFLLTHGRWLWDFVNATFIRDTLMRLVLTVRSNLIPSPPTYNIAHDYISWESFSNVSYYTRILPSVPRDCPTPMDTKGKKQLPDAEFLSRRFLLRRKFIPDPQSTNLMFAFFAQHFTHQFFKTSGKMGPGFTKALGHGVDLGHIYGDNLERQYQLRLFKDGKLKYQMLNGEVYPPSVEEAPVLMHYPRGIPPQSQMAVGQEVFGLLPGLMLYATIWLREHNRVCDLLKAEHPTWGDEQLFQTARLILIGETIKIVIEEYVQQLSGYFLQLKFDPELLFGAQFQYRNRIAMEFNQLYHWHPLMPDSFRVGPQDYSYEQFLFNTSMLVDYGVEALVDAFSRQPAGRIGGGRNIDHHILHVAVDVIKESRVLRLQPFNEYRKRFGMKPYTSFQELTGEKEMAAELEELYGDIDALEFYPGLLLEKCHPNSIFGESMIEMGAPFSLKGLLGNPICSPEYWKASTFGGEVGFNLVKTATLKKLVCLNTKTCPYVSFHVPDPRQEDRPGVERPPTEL

ovine COX-2 = biological target: T2, ovine COX-2 (Ovis aries, UniProt P79208); experiment: as above; format: biochemical; settings: read-out: IC50 (μM) vs. COX / COX-1
T2 construct: gene PTGS2
T2 sequence (P79208 17-603): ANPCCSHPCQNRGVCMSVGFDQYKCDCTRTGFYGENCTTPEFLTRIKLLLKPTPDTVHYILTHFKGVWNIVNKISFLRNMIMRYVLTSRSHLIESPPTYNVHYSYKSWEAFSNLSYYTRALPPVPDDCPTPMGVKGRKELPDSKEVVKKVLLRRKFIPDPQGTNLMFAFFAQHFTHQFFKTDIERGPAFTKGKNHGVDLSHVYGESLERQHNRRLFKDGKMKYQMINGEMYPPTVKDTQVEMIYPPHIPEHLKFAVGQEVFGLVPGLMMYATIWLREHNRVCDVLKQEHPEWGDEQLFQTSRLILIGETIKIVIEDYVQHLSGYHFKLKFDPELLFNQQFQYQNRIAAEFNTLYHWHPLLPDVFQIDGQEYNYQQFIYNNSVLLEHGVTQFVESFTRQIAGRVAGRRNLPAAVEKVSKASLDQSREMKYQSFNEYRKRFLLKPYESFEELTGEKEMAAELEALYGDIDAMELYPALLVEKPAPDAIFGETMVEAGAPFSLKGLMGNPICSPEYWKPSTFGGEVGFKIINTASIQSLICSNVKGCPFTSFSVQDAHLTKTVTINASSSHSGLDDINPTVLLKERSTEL

Question: `COc1ccc2cc1Oc1ccc(cc1)C[C@H]1c3cc(c(OC)cc3CCN1C)Oc1c(OC)c(OC)cc3c1[C@H](C2)N(C)CC3` [compound 1, (+)-tetrandrine] was tested. Which IC50 (ovine COX-1) did it give?
Answer: Its IC50 is greater than 100 µM.

Question: What about the IC50 (ovine COX-2) of the same molecule?
Answer: The IC50 was greater than 100 µM.
